Results reported in publication PMC10574094, “Discovery of a SHP2 Degrader with In Vivo Anti-Tumor Activity” (Molecules, 2023).

Key:
[1] = Decomposition of CRBN-based PROTACs in DMEM media or water (LCMS); assay type: physicochemical; settings: 10 μM, within 3 h, DMEM cell media or water, room temperature
Source text: With the desired SHP2 ligand in hand, we synthesized an initial set of PROTAC molecules using pomalidomide or lenalidomide as a ligand of the E3 ligase Cereblon (CRBN), which is one of the most productive E3 in the development of PROTACs. […] This observation is consistent with the fact that phthalimides can be smoothly hydrolyzed in the presence of water and an organic base, as these PROTAC compounds contain a basic aliphatic amino group. Given that this free amino group in the allosteric inhibitors is essential for the binding affinity to SHP2 [28], we reasoned that pomalidomide or lenalidomide-based CRBN ligands are not suitable for the development of in vivo efficacious SHP2 degraders in this study due to stability considerations.
Scheme S1. Decomposition of CRBN-based PROTACs in the presence of water. 10 μM compound 11 or
12 was incubated in DMEM media or water for 3 hours. The fina l co ncentrations of the compounds at
the endpoint were quantified by LCMS.
Table S1. Enzymatic IC50s of first generation SHP2 PROTACs against full length SHP2
Compound ID Linker Structure Linker Length (atom) SHP2 IC50 (n M) […]

[2] = biological target: T1, full-length SHP2 (1-528) (Homo sapiens, UniProt Q06124); experiment: SHP2 allosteric inhibition assay (DiFMUP substrate); assay type: biochemical; settings: full length SHP2, enzymatic assay
T1 construct: The SHP2 protein (Aa 1–528) was cloned into a pET-21a(+) vector; His; made in house; host or cells: E. coli BL21(DE3)
T1 sequence (Q06124 1-528): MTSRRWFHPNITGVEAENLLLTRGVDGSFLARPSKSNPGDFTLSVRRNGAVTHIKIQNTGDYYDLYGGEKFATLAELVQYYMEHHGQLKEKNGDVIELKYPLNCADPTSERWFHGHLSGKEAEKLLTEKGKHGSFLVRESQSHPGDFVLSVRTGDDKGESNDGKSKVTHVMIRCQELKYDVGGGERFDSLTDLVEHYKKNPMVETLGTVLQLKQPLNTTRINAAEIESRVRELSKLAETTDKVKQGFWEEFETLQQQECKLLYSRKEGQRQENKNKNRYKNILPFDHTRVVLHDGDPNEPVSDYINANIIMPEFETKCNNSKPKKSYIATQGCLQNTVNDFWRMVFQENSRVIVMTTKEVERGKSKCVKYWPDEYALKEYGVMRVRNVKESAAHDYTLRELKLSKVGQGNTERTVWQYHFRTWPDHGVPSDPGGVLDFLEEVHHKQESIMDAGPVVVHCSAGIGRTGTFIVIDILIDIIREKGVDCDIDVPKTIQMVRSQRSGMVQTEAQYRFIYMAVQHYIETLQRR
Description: The SHP2 protein (Aa 1–528) was cloned into a pET-21a(+) vector. Bacterial BL21(DE3) (Novagen) was used as an expression host, and the induction of protein expression was carried out in LB media with 1 mM IPTG at 18 °C overnight. Cell pellets were stored at −80 °C for subsequent protein purification. Protein purification was conducted at 4 °C. Frozen cell pellets were lysed by sonication in 40 mL cold lysis buffer (50 mM Tris-HCl, pH 8.0, 150 mM NaCl, 5 mM imidazole, and 1 mM PMSF) per liter cell pellet. Cell lysates were clarified by centrifuging for 15 min at 6000 rpm. The supernatant was incubated with HisPur Ni-NTA resin (Thermo Scientific, Waltham, MA, USA) for 2 h, and then packed onto a column and washed with 50 resin volume of buffer A (50 mM Tris-HCl, pH 8.0, 500 mM NaCl, 5 mM imidazole). The HIS-tagged proteins were eluted with Buffer B (50 mM Tris-HCl, pH = 8.0, 500 mM NaCl, 300 mM imidazole,). Pooled HIS-protein-containing fractions were concentrated, loaded onto a HiLoad 26/600 Superdex 75 column (GE Healthcare Biosciences, Piscataway, NJ, USA), and eluted with storage buffer (50 mM Tris-HCl, pH 8.0, 150 mM NaCl, 1 mM DTT, 10% glycerol). Proteins used for inhibition assays were purified using Ni-NTA resin (Qiagen, Hilden, Germany) followed by size exclusion column chromatography (ÄKTA pure, Cytiva, Marlborough, MA, USA) and the purity was determined to be >95% by SDS-PAGE and Coomassie staining. The protein was aliquoted and stored at −80 °C.
The catalytic activity of SHP2 (1-528) was assayed with 6,8-Difluoro-4-Methylumbelliferyl Phosphate (DiFMUP, Invitrogen, cat# D6567) as a substrate in 3,3-Dimethylglutaric acid (DMG) buffer (50 mM DMG, pH 7.0, 1 mM EDTA, 18 mM NaCl, 0.01% Triton X-100) at 25 °C. To determine the IC50 values, the assays were performed in 96-well plates (Corning Costar 3915). Series diluted compounds were incubated with 0.5 nM of SHP2 and 0.5 μM of peptide IRS1_pY1172(dPEG8)pY1222 (sequence H2N-LN(pY)IDLDLV(dPEG8)LST(pY)ASINFQK-amide). After 30 min incubation at room temperature, the substrate DiFMUP was added to the reaction (200 μM final concentration, total reaction volume is […]) and incubated at 25 °C for 10 min. The reaction was then quenched by adding 40 μL of 160 μM bpV(Phen) (Sigma–Aldrich, cat# SML0889) solution. The fluorescence signal was monitored with a CLARIOstar Plus Microplate Spectrophotometer (BMG Labtech) using excitation and emission wavelengths of 340 and 450 nm, respectively. The inhibitordose-response curves were analyzed using normalized IC50 regression curve fitting with control-based normalization. Data were fitted using Prism GraphPad 9.2.0.

[3] = biological target: T2, SHP2 (Homo sapiens, UniProt Q06124); experiment: SHP2 degradation by Western blotting in HEK293 cells; assay type: cell-based; design: endogenous in cells; host or cells: HEK293; settings: HEK293 cells; for SHP2 degradation (in words): 1 and 10 µM; for Degradation at 1 μM / Degradation at 10 μM: 16 h treatment
T2 sequence (Q06124 1-593): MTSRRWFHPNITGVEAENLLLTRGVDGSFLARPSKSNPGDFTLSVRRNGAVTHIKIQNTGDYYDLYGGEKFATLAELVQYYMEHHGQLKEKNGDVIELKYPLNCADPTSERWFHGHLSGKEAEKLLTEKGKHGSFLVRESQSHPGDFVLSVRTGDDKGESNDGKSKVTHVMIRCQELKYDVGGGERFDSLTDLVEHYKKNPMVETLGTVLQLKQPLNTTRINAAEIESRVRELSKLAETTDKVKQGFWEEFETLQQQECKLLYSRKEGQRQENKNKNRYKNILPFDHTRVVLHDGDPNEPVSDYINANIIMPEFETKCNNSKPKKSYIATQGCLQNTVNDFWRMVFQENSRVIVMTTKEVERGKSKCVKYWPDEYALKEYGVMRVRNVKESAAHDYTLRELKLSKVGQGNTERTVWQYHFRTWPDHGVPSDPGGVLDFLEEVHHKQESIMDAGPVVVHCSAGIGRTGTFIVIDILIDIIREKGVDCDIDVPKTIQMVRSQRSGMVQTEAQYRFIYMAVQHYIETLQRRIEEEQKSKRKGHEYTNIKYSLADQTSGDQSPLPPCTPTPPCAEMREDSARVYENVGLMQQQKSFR
Description: HEK293, SKBR3, U2OS, MCF7 and A549 cells were grown in DMEM supplemented with 10% FBS, penicillin (50 units/mL), and streptomycin (50 μg/mL) in a 37 °C incubator containing 5% CO2. […] For western-blot analysis, protein samples were separated by SDS-PAGE, transferred to nitrocellulose membranes, and incubated overnight at 4 °C with corresponding primary antibodies diluted in 5% BSA in phosphate-buffered saline Tween (PBST). SuperSignal™ West Pico PLUS (PI34580; Thermo Scientific) was used to visualize the antibodies in the bioanalytical imaging system (Azure Biosystems c500). […] Anti-PTP1B (ab244207) antibody was purchased from Abcam. For colony formation assay, a total of approximately 200–500 cells were seeded to each well in a 12-well plate.
Supplemental Figures, Schemes, and Tables:
Figure S1. Western blots of degradation assay for PROTAC screening. (A) Degradation assay of
compo un ds i n Table 1 at 1 μM fo r 16 hours in H EK29 3 cells. (B) Degradation assay of compounds in Table
1 at 10 μM for 16 hours in HEK293 cells. (C) Degradation assay of compounds in Table 2 at 1 μM for 16

SMILES | compound converted into ring-opened products 13 [1] | IC50 [2] | SHP2 degradation (in words) [3] | Degradation at 1 μM [3] | Degradation at 10 μM [3]
NCC1(CCCCCC(=O)NCCCCCC(=O)Nc2cccc3c2C(=O)N(C2CCC(=O)NC2=O)C3=O)CCN(c2cnc(Sc3cccc(Cl)c3Cl)c(N)n2)CC1 (stereo not shown) [compound 11, 6-(1-(6-amino-5-((2,3-dichlorophenyl)thio)pyrazin-2-yl)-4-(aminomethyl)piperidin-4-yl)-N-(6-((2-(2,6-dioxopiperidin-3-yl)-1,3-dioxoisoindolin-4-yl)amino)-6-oxohexyl)hexanamide] | over 90% |  |  |  | 
Cc1ncsc1-c1ccc([C@H](C)NC(=O)[C@@H]2C[C@@H](O)CN2C(=O)[C@@H](NC(=O)CCOCCOCCOCCNC(=O)CCCCCC2(CN)CCN(c3cnc(Sc4cccc(Cl)c4Cl)c(N)n3)CC2)C(C)(C)C)cc1 [P3, (2S,4R)-1-((S)-22-(1-(6-amino-5-((2,3-dichlorophenyl)thio)pyrazin-2-yl)-4-(aminomethyl)piperidin-4-yl)-2-(tert-butyl)-4,17-dioxo-7,10,13-trioxa-3,16-diazadocosanoyl)-4-hydroxy-N-((S)-1-(4-(4-methylthiazol-5-yl)phenyl)ethyl)pyrrolidine-2-carboxamide] |  | 158 ± 26.5 nM | did not induce significant degradation of SHP2 | <10% | <10%
Cc1ncsc1-c1ccc([C@H](C)NC(=O)[C@@H]2C[C@@H](O)CN2C(=O)[C@@H](NC(=O)CCCCCCCCCCCNC(=O)CCCCCC2(CN)CCN(c3cnc(Sc4cccc(Cl)c4Cl)c(N)n3)CC2)C(C)(C)C)cc1 [SC11, (2S,4R)-1-((S)-2-(12-(6-(1-(6-amino-5-((2,3-dichlorophenyl)thio)pyrazin-2-yl)-4-(aminomethyl)piperidin-4-yl)hexanamido)dodecanamido)-3,3-dimethylbutanoyl)-4-hydroxy-N-((S)-1-(4-(4-methylthiazol-5-yl)phenyl)ethyl)pyrrolidine-2-carboxamide] |  | 105 ± 15.6 nM |  | 27% | 64%
Cc1ncsc1-c1ccc([C@H](C)NC(=O)[C@@H]2C[C@@H](O)CN2C(=O)[C@@H](NC(=O)CCCCCCCCCNC(=O)CCCCCC2(CN)CCN(c3cnc(Sc4cccc(Cl)c4Cl)c(N)n3)CC2)C(C)(C)C)cc1 [SC9, (2S,4R)-1-((S)-2-(10-(6-(1-(6-amino-5-((2,3-dichlorophenyl)thio)pyrazin-2-yl)-4-(aminomethyl)piperidin-4-yl)hexanamido)decanamido)-3,3-dimethylbutanoyl)-4-hydroxy-N-((S)-1-(4-(4-methylthiazol-5-yl)phenyl)ethyl)pyrrolidine-2-carboxamide] |  | 132 ± 8.7 nM | negligible to modest degradation |  | 25%
Cc1ncsc1-c1ccc([C@H](C)NC(=O)[C@@H]2C[C@@H](O)CN2C(=O)[C@@H](NC(=O)CCCCCNC(=O)CCCCCC2(CN)CCN(c3cnc(Sc4cccc(Cl)c4Cl)c(N)n3)CC2)C(C)(C)C)cc1 [SC5, (2S,4R)-1-((S)-2-(6-(6-(1-(6-amino-5-((2,3-dichlorophenyl)thio)pyrazin-2-yl)-4-(aminomethyl)piperidin-4-yl)hexanamido)hexanamido)-3,3-dimethylbutanoyl)-4-hydroxy-N-((S)-1-(4-(4-methylthiazol-5-yl)phenyl)ethyl)pyrrolidine-2-carboxamide] |  | 139 ± 10.4 nM | negligible to modest degradation | <10% | <10%
Cc1ncsc1-c1ccc([C@H](C)NC(=O)[C@@H]2C[C@@H](O)CN2C(=O)[C@@H](NC(=O)CCOCCOCCOCCOCCNC(=O)CCCCCC2(CN)CCN(c3cnc(Sc4cccc(Cl)c4Cl)c(N)n3)CC2)C(C)(C)C)cc1 [P4, (2S,4R)-1-((S)-25-(1-(6-amino-5-((2,3-dichlorophenyl)thio)pyrazin-2-yl)-4-(aminomethyl)piperidin-4-yl)-2-(tert-butyl)-4,20-dioxo-7,10,13,16-tetraoxa-3,19-diazapentacosanoyl)-4-hydroxy-N-((S)-1-(4-(4-methylthiazol-5-yl)phenyl)ethyl)pyrrolidine-2-carboxamide] |  | 156 ± 15.8 nM | did not induce significant degradation of SHP2 | <10% | <10%
